Reference: US12458624B2, “Deuterium-enriched substituted phenoxyphenyl acetic acids and acylsulfonamides” (priority 2019, dated 2025)

Key:
[1] = tested on: male mongrel dogs; assay: Endothelin-1-induced changes in diastolic and urethral pressures in the anesthetized male dog; type: in vivo
Protocol: Methodology for Determining Whether an ET-1 Receptor Selective Antagonist could Inhibit the ET-1 Mediated Prostatic Urethral Contractions in a Mongrel Dog Model:
On separate days, two fasted male mongrel dogs (from commercial suppliers) weighing 11.0 and 12.4 kilograms (kg), are anesthetized with sodium pentobarbital at 35 mg/kg (i.v.) to effect, followed by 4 mg/kg/hr (i.v.) infusion. A cuffed endotracheal tube is inserted and each animal is ventilated with room air using a positive displacement large animal ventilator at a rate of 18 breaths/minute and an average tidal volume of 18 mL/kg body weight. Body temperature is maintained with a heating pad and heat lamp using a temperature controller and esophageal probe. Two catheters are placed in the aorta via the femoral arteries (one in each artery) for administration of endothelin or phenylephrine and for continuous direct monitoring of blood pressure and heart rate using a Statham blood pressure transducer (Spectramed) and a computer system (Modukar Instruments, Inc.). Two other catheters are placed in the vena cava via the femoral veins (one catheters in each vein) for administration of pentobarbital and N-(4-isopropyl (d7)-benzenesulfonyl)-α-(4-carboxy-2-n-propylphenoxy)-3,4-methylenedioxyphenylacetamide dipotassium salt.
A supra-pubic incision approximately one-half inch lateral to the penis is made to expose the ureters, urinary bladder, prostate, and urethra. The dome of the bladder is retracted to facilitate dissection of the ureters. The ureters are cannulated with PE 90 and tied off to the bladder. Umbilical tape is passed beneath the urethra at the bladder neck and another piece of tape is placed approximately 1-2 cm distal to the prostate. The bladder is incised and a Micro-tip catheter transducer is advanced into the urethra. The neck of the bladder is ligated with the umbilical tape to hold the transducer. The bladder incision is sutured with 3-0 silk (purse string suture). The transducer is withdrawn until it is positioned in the prostatic urethra. The position of the Micro-tip catheter is verified by gently squeezing the prostate and noting the large change in urethral pressure prior to ligating the distal urethra.
Phenylephrine (10 μg/kg, intra-arterial) is administered and pressor effects on diastolic blood pressure (DBP) and intra-urethral pressure (IUP) is noted. When blood pressure returned to baseline, endothelin-1 (1 nmole/kg, intra-arterial) is administered. Changes in DBP and IUP are monitored for one hour and an ET-1 selective endothelin antagonist, such as the deuterated compound, N-(4-isopropyl(d7)benzenesulfonyl)-α-(4-carboxy-2-n-propylphenoxy)-3,4-methylenedioxyphenyl-acetamide dipotassium salt (30 mg/kg, intra-venous), is administered. […] Phenylephrine is administered at the end of experiment to verify specificity for ET-1 blockade. The dogs are euthanized with an overdose of pentobarbital followed by saturated KCl.
The drugs utilized in the experiment described above are: • (1) Phenylephrine, HCl (PE) (Sigma Chemical Co.) is given at a volume of 0.05 mL/kg; • (2) Endothelin-1 (ET-1) (Human, Porcine, Canine, rat, Mouse, Bovine) is given at a volume of 0.05 mL/kg; • (3) ET-1 selective antagonist, such as the deuterated compound N-(4-isopropyl(d7)benzenesulfonyl)-α-(4-carboxy-2-n-propyl-[…]phenoxy)-3,4-methylenedioxyphenyl-acetamide dipotassium salt, is given at a volume of 0.3 mL/kg. • All drugs are dissolved in isotonic saline solution.

[2] = tested on: canine model of renovascular hypertension; details: J. Hypertens. 1998, 16, 835-841; cited from earlier work
[3] = tested on: rat prostate; assay: In situ rat prostate, ET-1 induced contraction; type: in vivo, Sprague-Dawley rats; details: ET-1 0.3 nmoles/kg intra-arterial; antagonist IA five minutes before third ET-1 injection
Protocol: Male Sprague-Dawley rats weighing 300-400 grams are anesthetized with urethane (1.75 g/kg, ip), a tracheal cannula is inserted, and the femoral artery is cannulated. Core body temperature is maintained at 37° C. A 4-5 cm midline abdominal incision is made to expose the bladder and prostate. The prostate is separated from the bladder and surrounding capsule by blunt dissection with a forcep. A length of surgical silk is gently secured around the anterior tips of the prostate lobes. A second length of surgical silk attached to an atraumatic needle is passed through and tied to the base of the prostate approximately 10-12 mm posterior to the first tie. The posterior ligature is secured to an anchor post whereas the anterior ligature is connected to a Grass FT03 transducer and maintained at a tension of 1 g. Signals from the transducer are amplified and recorded on a polygraph (Hewlett-Packard 8805B amplifiers and 7758 recorder, Palo Alto, CA). After equilibrating for over 15 min, the rats are administered pretreatment drugs (atropine 1 mg/kg, (+) propranolol 1 mg/kg) 10 min apart through the intra-arterial (IA) cannula. […] The response of the prostate to ET-1 is quantified by measuring the change from baseline tension to the peak of the response during the five-minute period after the third ET-1 injection. […]

[4] = ET-1 1 nmole/kg intra-arterial, before antagonist, average
[5] = 30 mg/kg i.v., ET-1 1 nmole/kg intra-arterial challenge ten to 15 minutes after administration
[6] = PE 10 μg/kg intra-arterial after antagonist 30 mg/kg i.v., one dog

CC[C@H](C)[C@H](NC(=O)[C@H](CC(=O)O)NC(=O)[C@H](CC(C)C)NC(=O)[C@H](Cc1c[nH]cn1)NC(=O)[C@@H]1CSSC[C@H](N)C(=O)N[C@@H](CO)C(=O)N[C@H]2CSSC[C@H](NC(=O)[C@H](CCC(=O)O)NC(=O)[C@H](CCCCN)NC(=O)[C@H](CC(=O)O)NC(=O)[C@H](CCSC)NC(=O)[C@H](CC(C)C)NC(=O)[C@H](CO)NC(=O)[C@H](CO)NC2=O)C(=O)N[C@@H](C(C)C)C(=O)N[C@@H](Cc2ccc(O)cc2)C(=O)N[C@@H](Cc2ccccc2)C(=O)N1)C(=O)N[C@H](C(=O)N[C@@H](Cc1c[nH]c2ccccc12)C(=O)O)[C@@H](C)CC [ET-1, reference compound]
increase in IUP [1, 4]: 15 mmHg
peak pressor effect on DBP [1, 4]: 25 mmHg
decrease in DBP (initial depressor effect) ([1]; ET-1 1 nmole/kg intra-arterial, before antagonist, average of both dogs): 15 mmHg

CCCCc1nc(Cl)c(CO)n1Cc1ccc(-c2ccccc2-c2nn[nH]n2)cc1 [Losartan]
reduction in mean arterial blood pressure [2]: 20 mmHg

[2H]C([2H])([2H])C([2H])(c1ccc(S(=O)(=O)NC(=O)C(Oc2ccc(C(=O)[O-])cc2CCC)c2ccc3c(c2)OCO3)cc1)C([2H])([2H])[2H].[2H]C([2H])([2H])C([2H])(c1ccc(S(=O)(=O)NC(=O)C(Oc2ccc(C(=O)[O-])cc2CCC)c2ccc3c(c2)OCO3)cc1)C([2H])([2H])[2H].[K+].[K+] (stereo not drawn) [N-(4-isopropyl(d7)benzenesulfonyl)-α-(4-carboxy-2-n-propylphenoxy)-3,4-methylenedioxyphenylacetamide Dipotassium Salt]
effect on ET-1 contraction of the prostate [3]: specific inhibition
inhibition of ET-1 depressor effect on DBP [1, 5]: 70%
inhibition of ET-1 pressor effect on DBP [1, 5]: 75%
inhibition of ET-1 pressor effect on IUP [1, 5]: 94%
inhibition of phenylephrine-induced increase in DBP [1, 6]: 33%
inhibition of phenylephrine-induced increase in IUP [1, 6]: 11%
hemodynamic and prostatic urethral responses to ET-1 ([1]; anesthetized dogs): specifically inhibited
change of intra-arterial phenylephrine-induced increases in DBP and IUP after administration ([1]; one dog, specificity check): did not change significantly
